ChEMBL document CHEMBL1201862, “PubChem BioAssay data set” (2004)
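A five-concentration, 48-hour dose response in 96-well plates underlies each endpoint, interpolated linearly between surrounding concentrations. GI50 marks 50% less growth.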 Activity calls are given as the source filed them. No stated cut-off is given here; in the data, active = GI50 up to about 1.1 µM and inactive = higher.

Key:
Test in all cases: growth of human tumour cells (NCI), 48 h
SN12C = system: SN12C
HOP-62 = system: HOP-62
K562 = system: K562
OVCAR-4 = system: OVCAR-4
SW-620 = system: SW-620
OVCAR-8 = system: OVCAR-8
SK-MEL-28 = system: SK-MEL-28
U-251 = system: U-251
CCRF-CEM = system: CCRF-CEM
UACC-257 = system: UACC-257
RXF 393 = system: RXF 393
M14 = system: M14
CAKI-1 = system: CAKI-1
SNB-19 = system: SNB-19
SF-295 = system: SF-295
UO-31 = system: UO-31
SK-OV-3 = system: SK-OV-3
SNB-75 = system: SNB-75
A549 = system: A549
HCC 2998 = system: HCC 2998

Measured: GI50

CC(C)(C)[Si](C)(C)OCC1OC(n2cnc3c(N)ncnc32)CC1OS(C)(=O)=O (configuration not stated)
inactive: SN12C > 100 µM | HOP-62 45.8 µM | K562 > 100 µM | OVCAR-4 > 100 µM | SW-620 > 100 µM | OVCAR-8 > 100 µM | SK-MEL-28 > 100 µM | U-251 > 100 µM | CCRF-CEM > 100 µM | UACC-257 > 100 µM | RXF 393 25.6 µM | M14 21.7 µM | CAKI-1 > 100 µM | SNB-19 > 100 µM | SF-295 > 100 µM | UO-31 51.4 µM | SK-OV-3 > 100 µM

O=C(O)/C(Cc1ccnc2ccccc12)=N\O
inactive: SN12C > 100 µM | HOP-62 > 100 µM | K562 > 100 µM | OVCAR-4 > 100 µM | SW-620 > 100 µM | OVCAR-8 > 100 µM | SNB-75 > 100 µM | SK-MEL-28 > 100 µM | U-251 > 100 µM | CCRF-CEM > 100 µM | UACC-257 > 100 µM | RXF 393 > 100 µM | M14 > 100 µM | CAKI-1 > 100 µM | SNB-19 > 100 µM | A549 > 100 µM | SF-295 > 100 µM | UO-31 > 100 µM | SK-OV-3 > 100 µM

CC1=C(C)[C@@]2(C)O[C@@]2(C)O[C@@]2(C)O[C@@]12C
inactive: SN12C > 100 µM | HOP-62 > 100 µM | K562 > 100 µM | OVCAR-4 > 100 µM | OVCAR-8 > 100 µM | SNB-75 > 100 µM | SK-MEL-28 > 100 µM | U-251 > 100 µM | UACC-257 > 100 µM | M14 > 100 µM | CAKI-1 > 100 µM | SNB-19 > 100 µM | A549 > 100 µM | SF-295 > 100 µM | UO-31 > 100 µM | SK-OV-3 > 100 µM

COC(=O)c1cc(NC2OCC(OC(C)=O)C(OC(C)=O)C2OC(C)=O)nc(SC)c1C(=O)OC (configuration not stated)
inactive: SN12C > 100 µM | HOP-62 > 100 µM | OVCAR-4 > 100 µM | SW-620 > 100 µM | OVCAR-8 > 100 µM | SNB-75 49.9 µM | SK-MEL-28 > 100 µM | U-251 > 100 µM | CCRF-CEM > 100 µM | UACC-257 > 100 µM | HCC 2998 > 100 µM | M14 > 100 µM | CAKI-1 > 100 µM | SNB-19 > 100 µM | A549 > 100 µM | SF-295 > 100 µM | UO-31 > 100 µM

COC(=S)OC1CC(n2cnc3c(N)ncnc32)OC1CO[Si](C)(C)C(C)(C)C (configuration not stated)
inactive: SN12C 20.4 µM | HOP-62 16 µM | K562 2.75 µM | OVCAR-4 16.6 µM | SW-620 28.6 µM | OVCAR-8 24.3 µM | SK-MEL-28 28.8 µM | U-251 14.3 µM | CCRF-CEM 10.1 µM | UACC-257 21.3 µM | RXF 393 12.1 µM | M14 16.4 µM | CAKI-1 > 10 µM | SNB-19 33 µM | SF-295 17.1 µM | UO-31 16.6 µM | SK-OV-3 24 µM

COc1cccc(C2C(C(=O)O)=C(CO)Oc3cc4c(cc32)OCO4)c1OC (configuration not stated)
inactive: SN12C > 100 µM | K562 > 100 µM | SW-620 > 100 µM | OVCAR-8 > 100 µM | SNB-75 > 100 µM | SK-MEL-28 > 100 µM | U-251 > 100 µM | CCRF-CEM > 100 µM | M14 > 100 µM | CAKI-1 > 100 µM | SNB-19 > 100 µM | SF-295 > 100 µM | UO-31 > 100 µM | SK-OV-3 > 100 µM

C1CC2=C(C1)[Se]C(=C1Sc3nsnc3S1)[Se]2
inactive: SN12C > 100 µM | HOP-62 > 100 µM | OVCAR-4 > 100 µM | SW-620 > 100 µM | OVCAR-8 > 100 µM | SNB-75 > 100 µM | SK-MEL-28 > 100 µM | U-251 > 100 µM | CCRF-CEM > 100 µM | UACC-257 > 100 µM | HCC 2998 > 100 µM | M14 > 100 µM | CAKI-1 > 100 µM | SNB-19 > 100 µM | A549 > 100 µM | SF-295 > 100 µM | UO-31 > 100 µM | SK-OV-3 > 100 µM

COc1nc2cccc(C(O)c3ccccc3)c2nc1-c1ccccc1 (configuration not stated)
inactive: SN12C 10.9 µM | HOP-62 3.78 µM | K562 3.81 µM | OVCAR-4 10.1 µM | SW-620 3.82 µM | OVCAR-8 8.22 µM | SNB-75 9.12 µM | SK-MEL-28 13.4 µM | U-251 4.19 µM | CCRF-CEM 3.02 µM | UACC-257 5.89 µM | RXF 393 3.64 µM | M14 4.39 µM | CAKI-1 5.05 µM | SNB-19 4.36 µM | A549 4.88 µM | SF-295 2.08 µM | UO-31 8.39 µM

Cc1cc(S(=O)(=O)Nc2nc(Nc3ccccc3)n[nH]2)c(SSc2cc(Cl)c(C)cc2S(=O)(=O)Nc2nc(Nc3ccccc3)n[nH]2)cc1Cl
inactive: SN12C > 100 µM | HOP-62 > 100 µM | K562 32.6 µM | OVCAR-4 > 100 µM | SW-620 > 100 µM | OVCAR-8 > 100 µM | SNB-75 > 100 µM | SK-MEL-28 > 100 µM | U-251 61.4 µM | CCRF-CEM 43.8 µM | UACC-257 > 100 µM | RXF 393 > 10 µM | M14 > 100 µM | CAKI-1 90.4 µM | SNB-19 94.8 µM | A549 > 100 µM | SF-295 > 100 µM | UO-31 > 100 µM | SK-OV-3 > 100 µM

NNC(=O)CCc1ccc2ccc3ccccc3c2c1
inactive: SN12C 68.1 µM | HOP-62 > 100 µM | K562 > 100 µM | OVCAR-4 74.6 µM | SW-620 > 100 µM | OVCAR-8 > 100 µM | SK-MEL-28 > 100 µM | U-251 > 100 µM | CCRF-CEM > 100 µM | UACC-257 > 100 µM | RXF 393 94.4 µM | HCC 2998 > 100 µM | M14 71.8 µM | CAKI-1 54.3 µM | SNB-19 85.7 µM | SF-295 78.7 µM | UO-31 18.8 µM | SK-OV-3 > 100 µM

O=C1OC(c2ccccc2)=N/C1=C\c1ccc(Oc2ccc(Cl)c(Cl)c2)cc1
inactive: SN12C 51.1 µM | HOP-62 88.3 µM | K562 24.4 µM | SW-620 37.7 µM | OVCAR-8 21.2 µM | SK-MEL-28 > 10 µM | U-251 24.1 µM | CCRF-CEM 23.1 µM | UACC-257 > 100 µM | RXF 393 25.8 µM | HCC 2998 50 µM | M14 49.5 µM | SNB-19 35.5 µM | A549 43.1 µM | SF-295 76.4 µM | UO-31 21.8 µM

CC1Oc2c(c(O)cc3oc(=O)cc(-c4ccccc4)c23)C(=O)C1C (configuration not stated)
inactive: SN12C > 100 µM | K562 > 100 µM | SW-620 > 100 µM | OVCAR-8 > 100 µM | SNB-75 > 100 µM | SK-MEL-28 > 100 µM | U-251 > 100 µM | CCRF-CEM > 100 µM | M14 > 100 µM | CAKI-1 > 100 µM | SF-295 > 100 µM | UO-31 > 100 µM | SK-OV-3 > 100 µM
